Measured values reported in patent US5616615A, “Enaminone esters” (priority 1995, dated 1997).
Read-outs that look alike come from different tables or passages of the source.

Columns and labels:
[1] = tested on: Maximal electroshock seizures; assay: Phase VI oral MES test, rats; assay type: in vivo; conditions: Rattus norvegicus, oral, 50 mg/kg, read-out: MES, animals protected/tested (converted)
Description: (§1) Maximal electroshock seizures are elicited with a 60-cycle alternating current of 50 mA intensity (5-7 times that necessary to elicit minimal electroshock seizures) delivered via corneal electrodes for 0.2 seconds. A drop of 0.9% saline is instilled in the eye prior to application of the electrodes in order to […].
(§2) This oral screen is designated as phase VI.

seizures = assay: Anticonvulsant evaluation (ASP phase I / overall); assay type: in vivo, mice; conditions: Mus musculus, ip; Phase I; read-out: ASP Classification
Description: (§3) The first phase of the ADD Program involved performing tests on male Carworth Farms #1 mice. […] Three tests were performed:
as §1
The animal is observed for 30 minutes.

[2] = tested on: Maximal electroshock seizures; assay: MES maximal electroshock seizure test, mice ip; assay type: in vivo; design: TPE (time of peak effect), activity: unit not given here; conditions: for responders at 100 mg/kg / responders at 10 mg/kg: read-out: MES, animals protected/tested (converted); for responders at 300 mg/kg: read-out: MES, animals protected/tested; for responders at 10 mg/kg: mice ip
Description: Three tests were performed:
1. MES--Electroshock Seizure Test
as §1

[3] = tested on: Subcutaneous Pentylenetetrazol seizure; assay: sc Met subcutaneous pentylenetetrazol (Metrazol) seizure test, mice; assay type: in vivo; conditions: Mus musculus, sc, read-out: scMet, animals protected/tested (converted)
Description: 2. sc Met--Subcutaneous Pentylenetetrazol (Metrazol^R) Seizure Test
The animal is observed for 30 minutes. Failure to observe even a threshold seizure (a single episode of clonic spasms of at least 5 seconds duration) is defined as protection and the results are expressed as the number of animals protected/the number of animals tested.

in vivo = conditions: rat, po, 50 mg/kg
Description: as §2

[4] = Tox rotorod neurotoxicity, mice ip; conditions: Phase II, ip, commercial products, onset of ataxia
Description: as §3
In the second phase of the ADD program protocol, estimates of anticonvulsant activity and neurotoxicity are quantified. The median effective dose (ED50) in the MES, sc Met, and rotorod test is determined. In the case of a compound with apparent activity in only one anticonvulsant test, testing is carried out in the other up to, and in some cases beyond, doses which produce neurological deficit. Compounds which fail to produce minimal neurological deficit are tested whenever possible to doses ten times their lowest anticonvulsant ED50. […] The rotorod ED50 is determined at the time of the peak neurologic deficit.

[5] = Mus musculus, ip, 0.5 h, 30 min

Row | SMILES | responders at 50 mg/kg ([1]; 0.5 h, 0.50 h) | responders at 50 mg/kg ([1]; 0.25 h) | responders at 50 mg/kg ([1]; 1.00 h) | responders at 50 mg/kg ([1]; 2.00 h) | responders at 50 mg/kg ([1]; 4.00 h) | minimal effective dose (seizures) | responders at 100 mg/kg [2, 5] | responders at 300 mg/kg [2, 5] | responders at 100 mg/kg ([2]; Mus musculus, ip, 4 h, 4 h) | responders at 300 mg/kg ([2]; Mus musculus, ip, 4 h, 4 h) | responders at 100 mg/kg ([3]; 0.5 h, 30 min) | responders at 300 mg/kg ([3]; 0.5 h, 30 min) | responders at 100 mg/kg ([3]; 4 h, 4 h) | responders at 300 mg/kg ([3]; 4 h, 4 h) | Tox, animals toxic/tested (in vivo) | further results
1 | CC1CC(=O)C=C(Nc2ccc(Cl)cc2)C1 (stereo not shown) [Compound 146, 3-[(p-Chlorophenyl)amino]-5-methyl-2-cyclohexen-1-one] | 75% | 25% | 100% | 100% | 50% | < 100 mg/kg | 100% | 100% | 0% | 100% | 0% | 40% | 0% | 0% | 0/4 | 
2 | O=C1C=C(Nc2ccc(Cl)cc2)CC1 [Compound 152, 3-(4'-Chlorophenyl)amino-2-cyclopentenone] | 25% | 0% | 25% | 75% | 50% | < 100 mg/kg | 33.3% | 100% | 0% | 0% | 0% | 0% | 0% | 0% | 0/4 | 
3 | O=C1C=C(NCc2ccccc2)CCC1 [Compound 148] | 50% | 0% | 50% | 50% | 75% | < 100 mg/kg | 100% | 100% | 0% | 0% | 0% | 0% | 0% | 0% | 0/4 | 
4 | CCCC(CCC)C(=O)O [valproate, reference compound] |  |  |  |  |  |  |  |  |  |  |  |  |  |  |  | ED50 ([2]; Mus musculus, Phase II, ip, time of peak effect): 665 mg/kg; TPE (time of peak effect), activity ([2]; Phase II, ip): 1; TPE (time of peak effect), toxicity [4]: 2
5 | CC(C)(C)c1ccc(NC2=CC(=O)CCC2)cc1 [Compound 150] | 50% | 50% | 75% | 25% | 50% | < 100 mg/kg | 100% | 100% | 0% | 100% | 0% | 60% | 0% | 0% | 0/4 | 
6 | COC(=O)C1C(=O)C=C(Nc2ccc(Cl)cn2)CC1C (stereo not shown) [Compound 116] | 100% | 100% | 100% | 100% | 100% | < 100 mg/kg | 66.7% | 100% | 0% | 0% | 0% | 100% | 0% | 0% | 0/4 | responders at 10 mg/kg ([2]; Mus musculus, ip, 0.25 h, 0.25 h): 75%; responders at 10 mg/kg ([2]; Mus musculus, ip, 0.5 h, 0.50 h): 100%; responders at 10 mg/kg ([2]; Mus musculus, ip, 1 h, 1.00 h): 50%; responders at 10 mg/kg ([2]; Mus musculus, ip, 2 h, 2.00 h): 0%; responders at 10 mg/kg ([2]; Mus musculus, ip, 4 h, 4.00 h): 0%; anti-MES protecting ability ([2]; Phase I): showed anti-MES protecting ability; responders at 300 mg/kg ([3]; 0.5 h, 30 min, second trial): 75%
7 | COC(=O)C1C(=O)C=C(Nc2ccc(F)cc2)CC1C (stereo not shown) [Compound 112] | 100% | 100% | 100% | 100% | 100% | < 100 mg/kg | 66.7% | 100% | 0% | 100% | 0% | 0% | 0% | 0% | 0/4 | 
